These results are taken from patent US20220098203A1 (priority 2018, published 2022).

One assay deals with T1, MAT2A homodimer (Homo sapiens, UniProt P31153).
T1 construct: inferred from the Ni sepharose purification and imidazole elution; made in house; host or cells: SF9 insect cells, recombinant baculovirus (Bac to Bac, pFASTBAC1)
Put plainly: MAT2A biochemical assay (liberated phosphate, PiColorLock Gold). As to conditions: Table 5a; MAT2A biochemical assay; read-out: Enzyme Inhibition. An outline of the steps:
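Baculovirus/Sf9-expressed, Ni-purified MAT2A homodimer preincubated with compound 60 min at 25 °C, then reacted 60 min at 25 °C with substrate mix of 500 μM ATP and 400 μM L-methionine, pH 7.0 (mix, not final levels). Phosphate released with SAM measured by PiColorLock Gold against phosphate standard curve.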

Assay [1] concerns SAM in HCT116 MTAP-deleted cells. Description: Cellular assay of target engagement (SAM), LC-MS/MS. Format: cell-based, human. As to conditions: Homo sapiens, HCT-116, Table 5a, 72 h, read-out: Cell 72 h SAM Inhibition (MTAP −/−). An outline of the steps:
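HCT116 cells with MTAP deleted were treated with compound for 72 h at 37°C/5% CO2. After quenching lysis in cold 80% methanol with 1 M acetic acid, SAM was quantified by LC-MS/MS against a d3-SAM internal standard.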

A further assay relates to HCT116 MTAP-/-. Description: Inhibition of cellular proliferation (Cell Titer Glo), HCT116 MTAP-/-. Format: cell-based, human. As to conditions: Homo sapiens, HCT-116, 96 h, Table 5a, 4 days, read-out: 4 Day Relative Growth Inhibition (MTAP −/−). In outline:
(§1)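 Isogenic HCT116 MTAP+/+ and MTAP−/− cells were plated, treated with MAT2A inhibitor after 24 h, and incubated 4 days at 37 °C. Proliferation was read by CellTiter-Glo ATP luminescence, blank-subtracted and normalized to 0.2% DMSO control.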
Background: ATP-based viability assays read luminescence as a measure of living cells.

Another assay deals with HCT116 MTAP+/+. Put plainly: Inhibition of cellular proliferation (Cell Titer Glo), HCT116 MTAP+/+. The assay is classed as cell-based. As to conditions: Homo sapiens, HCT-116, 96 h, Table 5a, 4 days, read-out: 4 Day Relative Growth Inhibition (MTAP +/+). In outline: as §1

Some results are limits rather than exact numbers.

T1 sequence (P31153 whole entry): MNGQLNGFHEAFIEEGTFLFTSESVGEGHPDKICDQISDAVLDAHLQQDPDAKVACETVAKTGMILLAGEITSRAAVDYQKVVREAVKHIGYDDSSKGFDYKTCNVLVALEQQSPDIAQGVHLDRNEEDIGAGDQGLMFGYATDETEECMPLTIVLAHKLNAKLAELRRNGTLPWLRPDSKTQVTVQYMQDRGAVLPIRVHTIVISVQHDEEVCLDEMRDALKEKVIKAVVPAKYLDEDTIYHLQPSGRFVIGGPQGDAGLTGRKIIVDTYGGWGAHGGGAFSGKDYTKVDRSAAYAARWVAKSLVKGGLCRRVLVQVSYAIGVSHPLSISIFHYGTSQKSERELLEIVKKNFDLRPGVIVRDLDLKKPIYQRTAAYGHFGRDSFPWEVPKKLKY

For `CCOc1ccc2c(n1)N(c1ccc(OC(F)F)cc1)C(=O)N(c1ccc3nnn(C)c3c1)C2` [Example 109], the IC50 was below 100 nM at MAT2A homodimer, below 100 nM in assay [1], 100 to 1000 nM in the assay with HCT116 MTAP-/- and above 1000 nM in the assay with HCT116 MTAP+/+.

For the compound `[2H]C([2H])([2H])Oc1ccc(N2Cc3cnc(NCC(F)(F)F)nc3N(c3ccc(-c4nc[nH]n4)cc3)C2=O)cc1` [Example 215, 1-(4-(1H-1,2,4-triazol-3-yl)phenyl)-3-(4-(methoxy-d3)phenyl)-7-((2,2,2-trifluoroethyl)amino)-3,4-dihydropyrimido[4,5-d]pyrimidin-2(1H)-one], the IC50 at MAT2A homodimer was below 100 nM; in assay [1], below 100 nM; with HCT116 MTAP-/- it was 100 to 1000 nM; in the assay with HCT116 MTAP+/+, above 1000 nM.

As to `COc1ccc(N2C(=O)N(c3ccc4nn(C)cc4c3)Cc3ccc(NC4CCC4)nc32)cc1` [Example 162, 7-(cyclobutylamino)-1-(4-methoxyphenyl)-3-(2-methyl-2H-indazol-5-yl)-3,4-dihydropyrido[2,3-d]pyrimidin-2(1H)-one], the IC50 at MAT2A homodimer was below 100 nM; in assay [1] it was 100 to 1000 nM; in the assay with HCT116 MTAP-/-, 100 to 1000 nM; in the assay on HCT116 MTAP+/+, above 1000 nM.

With `Cn1cc2cc(N3Cc4cnc(NCC(F)(F)F)nc4N(c4ccc(-c5nc[nH]n5)cc4)C3=O)ccc2n1` [Example 220, 1-(4-(1H-1,2,4-triazol-3-yl)phenyl)-3-(2-methyl-2H-indazol-5-yl)-7-((2,2,2-trifluoroethyl)amino)-3,4-dihydropyrimido[4,5-d]pyrimidin-2(1H)-one], the IC50 at MAT2A homodimer was below 100 nM; in assay [1], 100 to 1000 nM; in the assay with HCT116 MTAP-/-, 100 to 1000 nM; in the assay with HCT116 MTAP+/+, above 1000 nM.

On to `[2H]C([2H])([2H])Oc1ccc(N2C(=O)N(c3ccc4nn(CCC(F)(F)F)cc4c3)Cc3ccc(OCC(F)F)nc32)cc1` [Example 128, 7-(2,2-difluoroethoxy)-1-(4-methoxy-d3-phenyl)-3-(2-(3,3,3-trifluoropropyl)-2H-indazol-5-yl)-3,4-dihydropyrido[2,3-d]pyrimidin-2(1H)-one], for which the IC50 was below 100 nM at MAT2A homodimer, 100 to 1000 nM in assay [1], 100 to 1000 nM in the assay on HCT116 MTAP-/- and above 1000 nM in the assay on HCT116 MTAP+/+.

For `[2H]C([2H])([2H])Oc1ccc(N2C(=O)N(c3ccc4nn(C)cc4c3)Cc3cnc(NCC(F)(F)F)nc32)cc1` [Example 421, 1-(4-(methoxy-d3)phenyl)-3-(2-methyl-2H-indazol-5-yl)-7-((2,2,2-trifluoroethyl)amino)-3,4-dihydropyrimido[4,5-d]pyrimidin-2(1H)-one], the IC50 on MAT2A homodimer was below 100 nM; in assay [1], below 100 nM; in the assay on HCT116 MTAP-/-, below 100 nM; in the assay with HCT116 MTAP+/+, above 1000 nM.

Take `Cn1cc2cc(N3Cc4ccc(OCC(F)F)nc4N(c4ccc5[nH]cc(C#N)c5c4)C3=O)ccc2n1` [Example 410, 5-(7-(2,2-difluoroethoxy)-3-(2-methyl-2H-indazol-5-yl)-2-oxo-3,4-dihydropyrido[2,3-d]pyrimidin-1(2H)-yl)-1H-indole-3-carbonitrile]: the IC50 at MAT2A homodimer was below 100 nM; in assay [1], below 100 nM; in the assay on HCT116 MTAP-/- it was 100 to 1000 nM; in the assay with HCT116 MTAP+/+, above 1000 nM.

On to `COc1ccc(N2C(=O)N(c3ccc4nn(C)cc4c3)Cc3ncc(OCC(F)F)nc32)cc1` [Example 180, 7-(2,2-difluoroethoxy)-1-(4-methoxyphenyl)-3-(2-methyl-2H-indazol-5-yl)-3,4-dihydropteridin-2(1H)-one], for which the IC50 at MAT2A homodimer is below 100 nM; in assay [1], below 100 nM; in the assay with HCT116 MTAP-/-, below 100 nM; in the assay with HCT116 MTAP+/+ it was 100 to 1000 nM.

`COc1ccc(N2Cc3cnc(NCC(F)(F)F)nc3N(c3ccc(OC)nc3)C2=O)cc1` [Example 261]: the IC50 on MAT2A homodimer is 100 to 1000 nM; in assay [1], 100 to 1000 nM; in the assay on HCT116 MTAP-/-, above 1000 nM; with HCT116 MTAP+/+, above 1000 nM.

On to `COc1ccc(N2C(=O)N(c3ccc4nn(C)cc4c3)Cc3c(C)nc(NCC(F)(F)F)nc32)cc1` [Example 247, 1-(4-methoxyphenyl)-5-methyl-3-(2-methyl-2H-indazol-5-yl)-7-((2,2,2-trifluoroethyl)amino)-3,4-dihydropyrimido[4,5-d]pyrimidin-2(1H)-one], for which the IC50 is below 100 nM on MAT2A homodimer, below 100 nM in assay [1], below 100 nM in the assay on HCT116 MTAP-/- and 100 to 1000 nM in the assay on HCT116 MTAP+/+.

For the compound `[2H]C([2H])([2H])Oc1ccc(N2C(=O)N(c3ccc4nn(C5CC5)cc4c3)Cc3ccc(OCC(F)F)nc32)cc1` [Example 115, 3-(2-cyclopropyl-2H-indazol-5-yl)-7-(2,2-difluoroethoxy)-1-(4-methoxy-d3-phenyl)-3,4-dihydropyrido[2,3-d]pyrimidin-2(1H)-one], the IC50 at MAT2A homodimer is below 100 nM; in assay [1], 100 to 1000 nM; in the assay with HCT116 MTAP-/-, below 100 nM; in the assay on HCT116 MTAP+/+, above 1000 nM.

For `CCOc1cnc2c(c1)N(c1ccc(OC(F)F)cc1)C(=O)N(c1ccc3nn(C)cc3c1)C2` [Example 290], the IC50 is below 100 nM at MAT2A homodimer, 100 to 1000 nM in assay [1], 100 to 1000 nM in the assay with HCT116 MTAP-/- and above 1000 nM in the assay on HCT116 MTAP+/+.

`Cn1cc2cc(N3Cc4ncc(OCC(F)F)nc4N(c4ccc(OC(F)F)cc4)C3=O)ccc2n1` [Example 182, 7-(2,2-difluoroethoxy)-1-(4-(difluoromethoxy)phenyl)-3-(2-methyl-2H-indazol-5-yl)-3,4-dihydropteridin-2(1H)-one]: the IC50 at MAT2A homodimer was below 100 nM; in assay [1], below 100 nM; in the assay with HCT116 MTAP-/- it was 100 to 1000 nM; in the assay on HCT116 MTAP+/+, 100 to 1000 nM.

In the case of `COc1ccc(N2Cc3cnc(NCC(F)(F)F)nc3N(c3ccc(Cl)cc3)C2=O)cc1` [Example 252, 1-(4-chlorophenyl)-3-(4-methoxyphenyl)-7-((2,2,2-trifluoroethyl)amino)-3,4-dihydropyrimido[4,5-d]pyrimidin-2(1H)-one], the IC50 is 100 to 1000 nM on MAT2A homodimer, 100 to 1000 nM in assay [1], above 1000 nM in the assay with HCT116 MTAP-/- and above 1000 nM in the assay on HCT116 MTAP+/+.

With `COc1ccc(N2C(=O)N(c3ccnc(OC)c3)Cc3cnc(NCC(F)(F)F)nc32)cc1` [Example 228, 1-(4-methoxyphenyl)-3-(2-methoxypyridin-4-yl)-7-((2,2,2-trifluoroethyl)amino)-3,4-dihydropyrimido[4,5-d]pyrimidin-2(1H)-one], the IC50 is below 100 nM on MAT2A homodimer, 100 to 1000 nM in assay [1], 100 to 1000 nM in the assay on HCT116 MTAP-/- and above 1000 nM in the assay on HCT116 MTAP+/+.

As for `[2H]C([2H])([2H])Oc1ccc(N2C(=O)N(c3ccc4nc(C)n(C)c4c3)Cc3cnc(NCC(F)(F)F)nc32)cc1` [Example 402, 3-(1,2-dimethyl-1H-benzo[d]imidazol-6-yl)-1-(4-(methoxy-d3)phenyl)-7-((2,2,2-trifluoroethyl)amino)-3,4-dihydropyrimido[4,5-d]pyrimidin-2(1H)-one], the IC50 on MAT2A homodimer is below 100 nM; in assay [1] it was below 100 nM; in the assay with HCT116 MTAP-/-, below 100 nM; with HCT116 MTAP+/+, 100 to 1000 nM.

Consider `COc1ccc(N2Cc3cnc(NCC(F)(F)F)nc3N(c3ccc(CCO)cc3)C2=O)cc1` [Example 206, 1-(4-(2-hydroxyethyl)phenyl)-3-(4-methoxyphenyl)-7-((2,2,2-trifluoroethyl)amino)-3,4-dihydropyrimido[4,5-d]pyrimidin-2(1H)-one], for which the IC50 was below 100 nM at MAT2A homodimer, 100 to 1000 nM in assay [1], 100 to 1000 nM in the assay with HCT116 MTAP-/- and above 1000 nM in the assay with HCT116 MTAP+/+.

Regarding `COc1ccc(N2C(=O)N(c3ccc4nccn4c3)Cc3cnc(NCC(F)(F)F)nc32)cc1` [Example 237], the IC50 at MAT2A homodimer is below 100 nM; in assay [1] it was 100 to 1000 nM; with HCT116 MTAP-/-, 100 to 1000 nM; with HCT116 MTAP+/+, above 1000 nM.

For the compound `O=C1N(c2ccc3c(c2)OCCO3)Cc2cnc(NCC(F)(F)F)nc2N1c1ccc(-c2nc[nH]n2)cc1` [Example 214, 1-(4-(1H-1,2,4-triazol-3-yl)phenyl)-3-(2,3-dihydrobenzo[b][1,4]dioxin-6-yl)-7-((2,2,2-trifluoroethyl)amino)-3,4-dihydropyrimido[4,5-d]pyrimidin-2(1H)-one], the IC50 at MAT2A homodimer is below 100 nM; in assay [1], below 100 nM; in the assay on HCT116 MTAP-/-, 100 to 1000 nM; in the assay with HCT116 MTAP+/+, above 1000 nM.

For `O=C1N(c2ccc3ncsc3c2)Cc2cnc(NCC(F)(F)F)nc2N1c1ccc(-c2nc[nH]n2)cc1` [Example 219, 1-(4-(1H-1,2,4-triazol-3-yl)phenyl)-3-(benzo[d]thiazol-6-yl)-7-((2,2,2-trifluoroethyl)amino)-3,4-dihydropyrimido[4,5-d]pyrimidin-2(1H)-one], the IC50 at MAT2A homodimer is below 100 nM; in assay [1], below 100 nM; in the assay on HCT116 MTAP-/-, 100 to 1000 nM; in the assay on HCT116 MTAP+/+, above 1000 nM.

Consider `COc1ccc(N2Cc3ncc(NCC(F)(F)F)nc3N(c3ccc(Cl)cc3)C2=O)cc1` [Example 416, 1-(4-chlorophenyl)-3-(4-methoxyphenyl)-7-((2,2,2-trifluoroethyl)amino)-3,4-dihydropteridin-2(1H)-one], for which the IC50 at MAT2A homodimer is below 100 nM; in assay [1] it was 100 to 1000 nM; with HCT116 MTAP-/- it was 100 to 1000 nM; in the assay with HCT116 MTAP+/+, above 1000 nM.
